# Measurements reported in patent US5268308A, “Immunoassay for pyridostigmine” (priority 1989, dated 1993).
# Biological target: Pyridostigmine Antibody
# Experiment: Cross-reactivity with pyridostigmine antibody in RIA (competition with labeled pyridostigmine)
# Assay type: binding, rabbit (male New Zealand white)
# Conditions: labeled pyridostigmine 5000 DPM; maximum tested 500 ng
# Protocol: Antibodies to the pyridostigmine-BSA immunogen were produced by injecting male New Zealand white rabbits. Prior to injection, the immunogen was emulsified with an equal volume of complete Freund's adjuvant, purchased from Difco Laboratories. The initial immunization consisted of 0.8 mg of protein injected intracutaneously into the back of the rabbits. Booster injections containing 0.8 mg of immunogen and incomplete Freund's adjuvant were administered every one or two months for the next seven months. Blood was collected one week after each booster injection from the central ear vein. The blood was allowed to clot at room temperature and then centrifuged at 1500×g for 15 minutes. The separated serum was stored frozen at -20° C. until assayed for the presence of pyridostigmine antibody. […] FIG. 1 is the antibody dilution curve for pyridostigmine.
# In the assay procedure tritiated pyridostigmine having specificity of […] was used as tracer. The dilution of tracer, antisera and pyridostigmine standards were made using 0.01 M phosphate buffer containing 150 mM sodium chloride with a pH of 7.4.. […] Both standard and sample tubes were always analyzed in duplicate. The assay was carried out according to the protocol shown in. Table 1 with the reagents were added to the assay tubes in the order shown in.
# According to the protocol for the RIA of the present invention, after the addition of antisera, the contents of the tubes were mixed and incubated for 3 hours at 4° C. The antigen which bound to the antibody was separated by adding 100% saturated ammonium sulfate and centrifuging at 2500×g for 15 minutes. After aspiration of the supernatant, the precipitate was washed one time with 50% saturated ammonium sulfate; then the mixture was centrifuged and the supernatent removed. The precipitate was dissolved in 1.0 ml of distilled water, and the solution was transferred to a scintillation vial containing 10.0 ml of acquasol.
# Cross-reactivity of various compounds with pyridostigmine antibody was determined in the RIA. […] Each compound was tested for cross-reactivity with the antibody. The maximum concentration of each compound tested was 500 ng.
row,SMILES,IC 50 (50% inhibition of binding of 3H-pyridostigmine to the antibody) [ng]
1,C[n+]1cccc(O)c1 [3-Hydroxy-N-methyl-pyridostigmine],> 500
2,CN(C)C(=O)Oc1cccc([N+](C)(C)C)c1 [Neostigmine],> 500
3,CNC(=O)Oc1ccc2c(c1)[C@]1(C)CCN(C)[C@@H]1N2C [Physostigmmine],> 500
4,C[n+]1ccccc1/C=N/O [Pralidoxime Chloride],> 500
